# Like-named read-outs stand apart in the source and are kept apart here.
# What was measured:
# [1] = system: SLE, hypocomplementemic urticarial vasculitis; details: in vivo
# Cpn infected macrophages = details: in vitro; cited from earlier work
# [2] = cited from earlier work
# recurrent bronchitis = test: Case report: post-radiation recurrent bronchitis, antibacterial and antifungal therapy; format: in vivo, human; details: 500 mg QD #20; sputum positive for Klebsiella pneumoniae
# Excerpt: It is generally known that ACC is not usually sensitive to chemotherapy or standard […] beam radiation. Higher energy radiation doses, such as neutron beam radiation, have shown some promise and referral to the Cancer Center for radiation treatment was arranged. Under the care of a physician, 16 sessions of neutron beam radiation were provided, followed by two sessions of endotracheal brachytherapy with proton radiation. The patient tolerated the radiation relatively well and returned to work. They were warned that chronic bronchitis might follow airway radiation from the loss of salivary cells and ciliary cells in the bronchus. The patient was screened for recurrence twice yearly with neck MRI and lung CT for 3 years and there was no evidence of recurrence. Post radiation year 4 brought recurrent bronchitis that would remit temporarily with antibiotic therapy.
# Bronchoscopy was performed in January of 2004 to better determine the source of recurrent bronchitis. There was no evidence of cancer recurrence (FIG. 1). […] Brochoscopic washings were also sent for fungal cultures. The patient's IgG levels to Penicillium and Aspergillus were elevated, while the routine fungal cultures from bronchial washings were negative. […] The patient reported reduced fatigue, reduced inhalant allergies and a slight reduction in volume of sputum production. […]
# Alzheimer's dementia = test: Case report: DRS-2 in a patient with Alzheimer's dementia; details: human, in vivo
# Procedure: A retired attorney with Alzheimer's dementia was tested with the DRS-2 and found to be in the first percentile overall before T3 treatment and in the 25th percentile after 3 months of slow-release T3 therapy. Some parameters such as “conceptualization” increase dramatically from the 4th to the 50th percentile and “attention” improved from the 35th to the 89th percentile. […] Serology for Chlamydia pneumoniae confirmed both IgG and IgA antibodies (consistent with chronic or relapsing infection) and treatment with antibiotic medication has provided additional improvement in cognitive function. Prophylactic treatment with low dose antifungal medication is a component of this treatment.
# seropositive RA = test: Case report: Chlamydia pneumoniae-related rheumatoid arthritis; format: in vivo, human; details: low dose
# Procedure: A person with seropositive RA with joint swelling in their hands, elbows, knees and feet had negative serology for Chlamydia pneumoniae infection, along with elevated rT3/fT3 ratio and symptoms of fibromyalgia. They were initially treated with immunosuppressive medication including Prednisone 20 mg QD, Methotrexate 15 mg Qweek, antiTNF therapy with Humira injections twice monthly with limited response of less than ACR 20. […] After failing immunosuppressive therapy, a course of antibiotics designed to treat Chlamydia pneumoniae infection was prescribed. The antibiotic protocol is consistent with that recommended by Dr. Charles Stratton of Vanderbilt University for Chlamydia pneumoniae infection. […] This example illustrates the unreliable nature of currently available tests for Chlamydia pneumoniae infection and that patients with autoimmune disease with negative tests for Chlamydia pneumoniae infection are likely to have seronegative Chlamydia pneumoniae infection and respond to antibiotics. The use of T3 and antifungal medication in conjunction with antibiotic treatment has been beneficial.
# [3] = system: stage-4 metastatic breast cancer; test: Case report: antibiotic treatment of metastatic breast cancer; format: in vivo, human
# Procedure: A person was diagnosed with stage-4 metastatic breast cancer with bone, pelvic and lung involvement. Treatment was initiated on Jan. 23, 2005 with Amoxicillin 500 mg 1 QD, Ketek 400 mg 1 QD, Flagyl 500 mg 2 BID. The dose of Flagyl was […] to 500 mg 1 BID on Feb. 1, 2005. By Feb. […] Hospitalization was necessary. […] The attending physicians presumed the cause of their condition was C. difficile related despite the negative tests and treated them with metronidazole. […] They were encouraged to discontinue antibiotic treatment and enter hospice for palliative care.
# [4] = system: SLE, hypocomplementemic urticarial vasculitis; test: Case report: treatment of systemic lupus erythematosus
# pancreatic cancer = details: in vivo
# [5] = system: stage 4-metastatic pancreatic cancer; test: Case report: antibiotic treatment of pancreatic cancer (Example 3); format: in vivo, human; details: before antibiotic treatment
# Procedure: Ascites had developed and paracentesis was performed 3 days prior to our first visit. They were having difficulty breathing and eating due to abdominal distention from ascites. […] Treatment with Amoxicillin 500 mg 1 QD, Ketek 500 mg 1 QD, and Flagyl 500 mg 1-2 QD was initiated. […] 4, 2005 and was tolerating the above protocol. Their lab results from Jan. […] 27, 2004:
# The dose of Flagyl was increased to 1500 mg on Jan. […] 27, 2005.
smiles,measurement,setting,value
Cc1oncc1C(=O)Nc1ccc(C(F)(F)F)cc1 [Arava],tolerability of trial,[1],poorly tolerated
O=C1O[C@H]([C@@H](O)CO)C(O)=C1O [Ascorbic acid],effect on Cpn in infected macrophages,Cpn infected macrophages,driving the organism into cryptic phase
same,half life,[2],30 min
C[C@H]1COc2c(N3CCN(C)CC3)c(F)cc3c(=O)c(C(=O)O)cn1c23 [Levoquin],sputum production,recurrent bronchitis,reduced sputum production for three weeks
"N[C@@H](Cc1cc(I)c(Oc2ccc(O)c(I)c2)c(I)c1)C(=O)O [T3, triiodothyronine]",effect of discontinuation of supplementation,Alzheimer's dementia,worsening of Alzheimer's symptoms
same,fatigue and muscle pain,seropositive RA,fatigue and muscle pain improved
CN[C@H](CC(C)C)C(=O)N[C@H]1C(=O)N[C@@H](CC(N)=O)C(=O)N[C@H]2C(=O)N[C@H]3C(=O)N[C@H](C(=O)N[C@H](C(=O)O)c4cc(O)cc(O)c4-c4cc3ccc4O)[C@H](O)c3ccc(c(Cl)c3)Oc3cc2cc(c3O[C@@H]2O[C@H](CO)[C@@H](O)[C@H](O)[C@H]2O[C@H]2C[C@](C)(N)[C@H](O)[C@H](C)O2)Oc2ccc(cc2Cl)[C@H]1O [Vancomycin],symptoms after switch,[3]; in hospital,symptoms gradually improved six days later
CCN(CCO)CCCC(C)Nc1ccnc2cc(Cl)ccc12 (stereo not shown) [hydroxychloroquine],"synovitis, hypocomplementemic urticarial rash and proteinuria",[4]; before October 2003,responding to treatment
CN(Cc1cnc2nc(N)nc(N)c2n1)c1ccc(C(=O)N[C@@H](CCC(=O)O)C(=O)O)cc1 [methotrexate],tolerability of trial,[4]; additional immunosuppressive therapy,poorly tolerated
Cc1ncc([N+](=O)[O-])n1CCO [metronidazole],tolerability of increased dose,pancreatic cancer,well tolerated
same,adverse reaction,[3]; after one week of increased doses,"severe depression, hypotension, hypothermia, emesis and diarrhea"
same,symptoms of presumed C. difficile diarrhea,"[3]; in hospital, C. difficile tests negative",symptoms did not remit
CCCCCOC(=O)Nc1nc(=O)n([C@@H]2O[C@H](C)[C@@H](O)[C@H]2O)cc1F [zoloda],outcome of chemotherapy,[5],failed

# From patent publication US8343488B2, “Diagnosis and treatment of human dormancy-related sequellae” (priority 2002, dated 2013)
